Reference: ChEMBL document CHEMBL5584293, “Discovery and evaluation of novel spiroheterocyclic protective agents via a SIRT1 upregulation mechanism in cisplatin-induced premature ovarian failure” (Bioorg Med Chem, 2024)
The source made the active and inactive calls. No cut-off for these calls is given here.

Legend:
[1] = tested on: KGN; assay: Protective effect against cisplatin-induced injury in human KGN cells assessed as cell survival rate at 5 uM incubated for 48 hrs by MTT assay (Rvb ~ 60 %); type: functional; conditions: read-out: Survival
[2] = tested on: KGN; assay: Inhibition of cisplatin-induced apoptosis in human KGN cells at 1 uM incubated for 36 hrs by Annexin V-FITC/PI staining based analysis (reference value: 53.9 %); type: functional
[3] = tested on: Rattus norvegicus; assay: Protective effect against cisplatin-induced damage in Wistar rat assessed as increase in uterine weight at 50 mg/kg, IG qd for 14 days; type: functional, organism-based; conditions: time 14.0 day
[4] = tested on: KGN; assay: Protective effect against cisplatin-induced injury in human KGN cells assessed as increase in SIRT1 level incubated for 36 hrs by Western blot analysis; type: functional, cell-based; conditions: dose <= 10.0 µM
[5] = tested on: Rattus norvegicus; assay: Protective effect against cisplatin-induced damage in Wistar rat assessed as decrease in atretic follicle numbers in ovaries at 50 mg/kg, IG qd for 14 days by H and E staining based analysis; type: functional, organism-based; conditions: time 14.0 day
[6] = tested on: KGN; assay: Protective effect against cisplatin-induced injury in human KGN cells assessed as recovery of cell numbers at 1 to 10 uM by inverted microscopy; type: functional, cell-based; conditions: dose 1-10 µM
[7] = tested on: KGN; assay: Protective effect against cisplatin-induced injury in human KGN cells assessed as increase in p-AKT level incubated for 36 hrs by Western blot analysis; type: functional, cell-based; conditions: dose <= 10.0 µM
[8] = tested on: Rattus norvegicus; assay: Protective effect against cisplatin-induced damage in Wistar rat assessed as increase in organ indices at 50 mg/kg, IG qd for 14 days; type: functional, organism-based; conditions: time 14.0 day
[9] = tested on: KGN; assay: Protective effect against cisplatin-induced injury in human KGN cells assessed as recovery of cellular disruption at 1 to 10 uM by inverted microscopy; type: functional, cell-based; conditions: dose 1-10 µM
[10] = tested on: Rattus norvegicus; assay: Protective effect against cisplatin-induced damage in Wistar rat assessed as increase in serum E2 level at 50 mg/kg, IG qd for 14 days by ELISA; type: functional, organism-based; conditions: time 14.0 day
[11] = tested on: KGN; assay: Inhibition of cisplatin-induced apoptosis in human KGN cells at 5 uM incubated for 36 hrs by Annexin V-FITC/PI staining based analysis (reference value: 53.9 %); type: functional
[12] = tested on: KGN; assay: Protective effect against cisplatin-induced injury in human KGN cells assessed as increase in cell survival incubated for 48 hrs by MTT assay; type: functional, cell-based; conditions: dose 1.25-10 µM
[13] = Toxicity in Wistar rat model of cisplatin-induced damage assessed as body weight loss at 50 mg/kg, IG qd for 7 to 14 days; type: organism-based; conditions: in vivo, po, time 7-14 day
[14] = tested on: KGN; assay: Protective effect against cisplatin-induced injury in human KGN cells harboring siSIRT1 at 2.5 uM incubated for 36 hrs by Western blot analysis; type: functional, cell-based
[15] = tested on: KGN; assay: Protective effect against cisplatin-induced injury in human KGN cells assessed as increase in serum E2 level at 1 to 10 uM by ELISA; type: functional, cell-based; conditions: dose 1-10 µM
[16] = tested on: Rattus norvegicus; assay: Protective effect against cisplatin-induced damage in Wistar rat assessed as increase in ovarian weight at 50 mg/kg, IG qd for 14 days; type: functional, organism-based; conditions: time 14.0 day
[17] = tested on: KGN; assay: Cytotoxicity against human KGN cells at 1.25 to 10 uM incubated for 48 hrs by MTT assay; type: toxicity, cell-based; conditions: dose 1.25-10 µM
[18] = tested on: KGN; assay: Protective effect against cisplatin-induced injury in human KGN cells assessed as recovery of cellular suspension at 1 to 10 uM by inverted microscopy; type: functional, cell-based; conditions: dose 1-10 µM
[19] = tested on: Rattus norvegicus; assay: Protective effect against cisplatin-induced damage in Wistar rat assessed as increase in growing follicle numbers in ovaries at 50 mg/kg, IG qd for 14 days by H and E staining based analysis; type: functional, organism-based; conditions: time 14.0 day
[20] = tested on: Rattus norvegicus; assay: Protective effect against cisplatin-induced damage in Wistar rat assessed as increase in primordial follicle numbers in ovaries at 50 mg/kg, IG qd for 14 days by H and E staining based analysis; type: functional, organism-based; conditions: time 14.0 day
[21] = tested on: KGN; assay: Protective effect against cisplatin-induced injury in human KGN cells assessed as cell survival at 25 to 50 uM incubated for 48 hrs by MTT assay; type: functional, cell-based; conditions: dose 25-50 µM
[22] = tested on: Rattus norvegicus; assay: Protective effect against cisplatin-induced damage in Wistar rat assessed as reduction in vascular congestion in ovaries at 50 mg/kg, IG qd for 14 days by H and E staining based analysis; type: functional, organism-based; conditions: time 14.0 day
[23] = tested on: KGN; assay: Inhibition of cisplatin-induced apoptosis in human KGN cells assessed as decrease in Bax expression at 1 to 10 uM by immunoblot analysis; type: functional, cell-based; conditions: dose 1-10 µM
[24] = tested on: KGN; assay: Inhibition of cisplatin-induced apoptosis in human KGN cells at 10 uM incubated for 36 hrs by Annexin V-FITC/PI staining based analysis (reference value: 53.9 %); type: functional
[25] = tested on: Rattus norvegicus; assay: Protective effect against cisplatin-induced damage in Wistar rat assessed as improvement in ovarian structure at 50 mg/kg, IG qd for 14 days by H and E staining based analysis; type: functional, organism-based; conditions: time 14.0 day
[26] = tested on: Rattus norvegicus; assay: Protective effect against cisplatin-induced damage in Wistar rat assessed as decrease in uterine wall thinning at 50 mg/kg, IG qd for 14 days by H and E staining based analysis; type: functional, organism-based; conditions: time 14.0 day
[27] = tested on: KGN; assay: Protective effect against cisplatin-induced injury in human KGN cells assessed as recovery of cell growth at 1 to 10 uM by inverted microscopy; type: functional, cell-based; conditions: dose 1-10 µM
[28] = tested on: Rattus norvegicus; assay: Protective effect against cisplatin-induced damage in Wistar rat assessed as increase in sinus follicle numbers in ovaries at 50 mg/kg, IG qd for 14 days by H and E staining based analysis; type: functional, organism-based; conditions: time 14.0 day
[29] = tested on: KGN; assay: Inhibition of cisplatin-induced apoptosis in human KGN cells assessed as increase in Bcl-2 expression at 1 to 10 uM by immunoblot analysis; type: functional, cell-based; conditions: dose 1-10 µM
[30] = tested on: KGN; assay: Protective effect against cisplatin-induced injury in human KGN cells assessed as cell survival rate at 5 uM incubated for 48 hrs by MTT assay (reference value: 65 %); type: functional; conditions: read-out: Survival
[31] = Cytotoxicity against rat NRK cells assessed as cell survival rate at 50 uM incubated for 48 hrs by MTT assay relative to control; type: toxicity, cell-based; conditions: read-out: Survival
[32] = Cytotoxicity against human MIHA cells assessed as cell survival rate at 50 uM incubated for 48 hrs by MTT assay relative to control; type: toxicity, cell-based; conditions: read-out: Survival
[33] = Cytotoxicity against human PDL cells assessed as cell survival rate at 50 uM incubated for 48 hrs by MTT assay relative to control; type: toxicity, cell-based; conditions: read-out: Survival

Which viability at 5 µM [1] does the source give for `CC1N[C@@]2(C(=O)c3cccc4cccc2c34)[C@@]2(CCC/C(=C\c3ccccc3)C2=O)[C@H]1c1ccccc1` (stereo partly drawn) here?
The viability at 5 µM was 75.3%.

Which results are given for `COc1ccc(/C=C2\CCC[C@@]3(C2=O)[C@@H](c2ccc(OC)c(OC)c2)C(C)N[C@@]32C(=O)c3cccc4cccc2c34)cc1OC` (stereo partly drawn)?
inhibition at 1 µM [2]: 8.6%; Activity [3]: Active; Activity [4]: Dose-Dependent Effect; Activity [5]: Active; Activity [6]: Active; Activity [7]: Dose-Dependent Effect; Activity [8]: Active; Activity [9]: Active; Activity [10]: Active; inhibition at 5 µM [11]: 21.1%; Activity [12]: Dose-Dependent Effect; Activity [13]: Non-Toxic; Activity [14]: inactive; Activity [15]: Active; Activity [16]: Active; Activity [17]: Non-Toxic; Activity [18]: Active; Activity [19]: Active; Activity [20]: Active; Activity [21]: Active; Activity [22]: Active; inhibition [23]: Active; inhibition at 10 µM [24]: 27.8%; Activity [25]: Active; Activity [26]: Active; Activity [27]: Active; Activity [28]: Active; inhibition [29]: Active; viability at 5 µM [30]: 94%

Which viability at 48 h, 50 µM [31] does the source give for `CN1C[C@H](c2ccccc2)[C@]2(CCC/C(=C\c3ccccc3)C2=O)[C@]12C(=O)c1cccc3cccc2c13` here?
Its viability at 48 h, 50 µM is 94%.

And the viability at 48 h, 50 µM [32]?
Its viability at 48 h, 50 µM is 89.5%.

What about the viability at 48 h, 50 µM [33] of the same compound?
Its viability at 48 h, 50 µM is 97.5%.
